This note sets out measurements from PMC11640089, “JRM-28, a Novel HDAC2 Inhibitor, Upregulates Plasticity-Associated Proteins in Hippocampal Neurons and Enhances Morphological Plasticity via Activation of CREB: Implications for Alzheimer’s Disease” (Cells, 2024).

Where “and” joins values, the source holds several entries; their conditions need not be identical. Identical values can stand only once. Like-named read-outs stand apart in the source and are kept apart here.

Assay [1] has as its target T1, HDAC6 (Homo sapiens, UniProt Q9UBN7).
T1 construct: purchased BPS Bioscience 50056
T1 sequence (Q9UBN7 1-1215): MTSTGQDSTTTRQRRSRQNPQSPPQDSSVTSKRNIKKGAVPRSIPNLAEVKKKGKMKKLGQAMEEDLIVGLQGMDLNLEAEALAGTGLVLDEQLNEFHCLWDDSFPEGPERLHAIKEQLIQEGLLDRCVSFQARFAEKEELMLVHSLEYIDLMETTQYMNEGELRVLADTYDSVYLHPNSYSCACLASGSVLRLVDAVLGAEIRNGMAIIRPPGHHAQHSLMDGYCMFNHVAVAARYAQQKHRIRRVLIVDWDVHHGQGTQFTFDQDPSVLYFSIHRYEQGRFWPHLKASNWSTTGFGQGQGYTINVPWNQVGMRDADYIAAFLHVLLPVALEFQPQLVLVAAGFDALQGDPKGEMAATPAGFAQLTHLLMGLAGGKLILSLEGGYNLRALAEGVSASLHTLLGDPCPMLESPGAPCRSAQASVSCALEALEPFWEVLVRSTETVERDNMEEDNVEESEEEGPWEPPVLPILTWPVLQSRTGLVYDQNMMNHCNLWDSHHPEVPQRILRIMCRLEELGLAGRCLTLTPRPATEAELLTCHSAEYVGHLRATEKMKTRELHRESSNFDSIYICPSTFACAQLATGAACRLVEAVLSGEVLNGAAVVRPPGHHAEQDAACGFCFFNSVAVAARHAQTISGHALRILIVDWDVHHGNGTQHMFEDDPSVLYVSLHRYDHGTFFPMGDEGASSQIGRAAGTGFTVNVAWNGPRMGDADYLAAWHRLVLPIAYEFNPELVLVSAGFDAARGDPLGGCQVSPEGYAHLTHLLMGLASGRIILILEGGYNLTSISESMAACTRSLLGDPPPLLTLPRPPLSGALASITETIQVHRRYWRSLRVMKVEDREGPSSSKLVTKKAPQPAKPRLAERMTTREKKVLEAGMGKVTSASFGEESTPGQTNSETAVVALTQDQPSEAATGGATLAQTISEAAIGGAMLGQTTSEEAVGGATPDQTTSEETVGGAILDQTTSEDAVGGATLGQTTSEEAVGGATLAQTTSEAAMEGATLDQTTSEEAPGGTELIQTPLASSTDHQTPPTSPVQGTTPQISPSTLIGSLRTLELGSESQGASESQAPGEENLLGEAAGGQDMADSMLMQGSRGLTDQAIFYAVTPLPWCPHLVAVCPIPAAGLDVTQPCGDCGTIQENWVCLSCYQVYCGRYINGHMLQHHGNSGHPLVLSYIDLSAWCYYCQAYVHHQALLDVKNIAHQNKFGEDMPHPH
The assay is described as follows: Fluorimetric HDAC inhibition assay, HDAC6. In kind it is biochemical. The settings on record: reduced with DTT. The procedure:
The inhibition of HDAC1, 2, 3, and 6 by JRM-28 was fluorometrically measured using the HDAC Fluorogenic Assay Kit (Catalog# 50034) by BPS bioscience. Purified recombinant human HDAC1 (Cat# 50051), HDAC3 (Cat# 50003), and HDAC6 (Cat# 50056) were also obtained from BPS Bioscience. The enzyme inhibition assay was performed according to the manufacturer’s protocol. […] Purified recombinant HDAC2 (supplied with the fluorogenic kit) was diluted to 6 ng/µL (5 µL/well with the supplied HDAC assay buffer). HDAC 1, 3, and 6 were also diluted to the optimized concentration (5 µL/well) with the HDAC assay buffer. The activity of JRM-28 was measured along with DTT control and DMSO as blank. After adding 5 µL of the diluted HDAC enzymes in designated wells, the 96-well plate (supplied with the kit) was incubated at 37 °C. Then, the reaction was initiated by adding 5 µL of diluted HDAC substrate to each well, followed by another incubation at 37 °C for 30 min. Next, 50 µL of the developer reagent was added to each well and incubated at room temperature for another 15 min. Finally, fluorescence was measured by a microplate absorbance spectrophotometer (PerkinElmer Enspire 2300 Multilabel Multimode Microplate Reader) with an excitation at λ = 485 nm and detection at λ = 528 nm.

Assay [2] deals with HDAC2 (Homo sapiens, UniProt Q92769). The assay is described as follows: HDAC2 inhibition assay, luminometric method (HDAC-Glo I/II). It counts as biochemical. The arrangement: purchased BPS Bioscience 50002. The settings on record: HDAC2 0.5 nM, read-out: IC50 HDAC2 inhibition (luminescence). The procedure: HDAC2 inhibition assay was performed by either the luminometric or fluorimetric method applying the following procedures. The table (Table 1) represents the details of different HDAC proteins and antibodies used in all biochemical assays.
Chain of HDAC2 (Q92769 whole entry): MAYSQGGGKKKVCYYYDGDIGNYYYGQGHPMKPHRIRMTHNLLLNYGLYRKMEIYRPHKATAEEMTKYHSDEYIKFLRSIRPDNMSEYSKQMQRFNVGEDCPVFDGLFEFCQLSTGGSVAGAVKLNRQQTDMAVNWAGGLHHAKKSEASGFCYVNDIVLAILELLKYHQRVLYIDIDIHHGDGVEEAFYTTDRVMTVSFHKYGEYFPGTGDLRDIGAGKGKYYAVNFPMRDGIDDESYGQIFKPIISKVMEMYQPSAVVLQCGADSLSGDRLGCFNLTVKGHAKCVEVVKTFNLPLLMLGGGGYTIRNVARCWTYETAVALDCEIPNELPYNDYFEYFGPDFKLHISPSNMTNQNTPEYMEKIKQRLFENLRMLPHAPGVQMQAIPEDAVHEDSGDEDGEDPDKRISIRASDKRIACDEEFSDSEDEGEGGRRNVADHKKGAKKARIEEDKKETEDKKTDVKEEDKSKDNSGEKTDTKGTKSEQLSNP
HDAC2 inhibition assay was performed by HDAC-Glo™ I/II Assays and Screening System (Catalog# G6420, Promega Corporation, Madison, WI, USA) by the luminometric method according to the manufacturer’s protocol. […] The HDAC-2 inhibition assay was performed as previously described to determine IC values. In brief, the purified HDAC2 was diluted in HDAC assay buffer (provided with the HDAC-Glo™ I/II Assays and Screening System) to the same concentration based on their calculated molar mass. […] Next, 10 µL of JRM-28 after serial dilution was added to 10 µL of diluted HDAC2 in such a way that the final HDAC2 concentration was 0.5 nM in each well of a 384-well microplate (Greiner, Kremsmünster, Austria). After 30 min of incubation, 20 µL of the HDAC-Glo substrate/developing reagent was added to each well according to the manufacturer’s instructions. The 384-well plate was then agitated on an orbital shaker for the mixing of components in each well for another 30 min at room temperature. Finally, luminescence was measured using a POLARstar Omega plate reader (BMG Labtech, Ortenberg, Germany).

`CN(C(=O)C[C@@H](O)/C=C/CCS(=O)O)c1ccccc1` [JRM-28a]: the “Hill coefficient HDAC6 (fluorimetric)” value in assay [1] is reported as −5.116.

The term IC50 denotes the point on the concentration scale where inhibition reaches its midpoint. Turning to `CN(C(=O)CC(O)/C=C/CCSSCC/C=C/C(O)CC(=O)N(C)c1ccccc1)c1ccccc1` (stereo not drawn) [JRM-20, (4E,4’E)-7,7’-disulfanediylbis(3-hydroxy-N-methyl-N-phenylhept-4-enamide)], the IC50 in assay [2] (without DTT (non-reduced dimer)) turned out to be 12.9 µM.

Turning to `CN(C(=O)C[C@@H](O)/C=C/CCS)c1ccccc1` [JRM-28b], in assay [2] (in the presence of DTT (reduced)), the IC50 was 2.7 µM and 2.71 µM.
